Work on `CC(O)(CSc1ccc(F)cc1)C(=O)O` (stereo not drawn) yielded a melting point of 73 to 75 °C. For `CONC(=N)c1nn(-c2c(Cl)cc(C(F)(F)F)cc2Cl)c(N)c1S(C)=O` (stereo not drawn), the melting point was 169 to 170 °C. `CC(C)(C#N)c1cc(Cc2cccnc2)cc(C(C)(C)C#N)c1` gave a melting point of 82 to 84 °C. For `Cc1noc(NS(=O)(=O)c2ccccc2-c2ccc(-c3ncco3)cc2CN(CC(F)(F)F)C(C)C)c1C`, the melting point was 80 to 90 °C. Compound `O=[N+]([O-])c1ccc(C=Cc2ccc(Cl)c(Cl)c2)cc1` has a melting point of 190 to 191 °C. `CN1CCC(N2C(=O)c3ccccc3Oc3ccccc32)CC1` gave a melting point of 173 to 174 °C. `CCCC[C@]12OC1CC[C@]1(C)CC[C@@H]3C[C@@]12OC3(C)C` (stereo partly drawn) showed a melting point of 70 to 72 °C. Compound `CCCCCc1scc2c1n(C(=O)OC)c(=O)n2C(=O)OC` has a melting point of 99 to 102 °C. In the case of `COc1ccc(-c2c3cccc(C(F)(F)F)c3nn2CC(C)C)c(OC)c1`, the melting point is reported as 111 to 112 °C. With `COc1ccc2[nH]cc(C3CCN(CCCCN4C(=O)c5ccccc5C4=O)CC3)c2c1` the melting point was 155 °C. `N#Cc1nc(N)c(Cl)nc1C#N` showed a melting point of 205 to 208 °C. In the case of `CCOC(=O)c1sc2[nH]c(=O)ccc2c1Br`, the melting point is reported as 262 to 268 °C. Work on `CCCCCCNC(=O)Oc1ccc(Oc2ccccc2)cc1` yielded a melting point of 57 to 59 °C. Compound `NS(=O)(=O)c1cc(Br)cc2c1OS(=O)(=O)C=C2` has a melting point of 224 to 228 °C. In the case of `OCC(CC(F)(F)F)Nc1nc(-c2ccc(Br)cc2)cs1` (stereo not drawn), the melting point is reported as 120 to 121 °C. In the case of `CCn1nc(OCCCc2ccc(OCCOC(C)C)cc2Oc2ncc(C(F)(F)F)cc2Cl)cc1CCC(=O)O`, the melting point is reported as 130 to 132 °C. `Fc1cccc(Cl)c1COc1cc(Cl)cnc1NC(=S)Nc1ccc(Cl)cc1` showed a melting point of 158 to 160 °C. Compound `C[C@@H](NC(=O)C1(C)CC(F)(F)C1)c1ccc(Br)cc1` has a melting point of 120 to 122 °C. Work on `Cc1cc2nc(Cl)c(Cl)nc2c([N+](=O)[O-])c1C` yielded a melting point of 133 to 134 °C. `O=C(c1ccccc1)c1cc([N+](=O)[O-])ccc1OCCO` showed a melting point of 124 to 126 °C. `CCCn1nnc2c(C(N)=O)ncn2c1=O` gave a melting point of 167 °C. With `Cc1c(C)c2c(c(C)c1O)CCC(C)(C#Cc1cccs1)O2` (stereo not drawn) the melting point was 133 to 135 °C. `CCc1sc2c(c1S(=O)(=O)c1ccc(O)cc1)CN(Cc1ccccc1Cl)CC2` gave a melting point of 176 °C. `COc1ccc2c(SC(C)(C)C)c(C(C)C(C)(C)C(=O)O)[nH]c2c1` (stereo not drawn) showed a melting point of 133 °C. In the case of `Clc1ccc(Oc2cncc3sc(-c4ccco4)cc23)cc1`, the melting point is reported as 75 to 77 °C. Compound `CCOC(=O)C1=C(COC(C)=O)Nc2nc(N3CCOCC3)nc(N3CCOCC3)c2C1c1cccc(Cl)c1Cl` (stereo not drawn) has a melting point of 161 °C. Work on `Cc1noc(NS(=O)(=O)c2ccc(-c3ccc4c(c3)OCO4)cc2)c1Br` yielded a melting point of 172 to 174 °C. With `CC(C)(C)OC(=O)C1CCCN1Cc1ccc2cc(NC(=O)c3ccc(-c4ccc(Cl)cc4)cc3)ccc2n1` (stereo not drawn) the melting point was 163 to 166 °C. In the case of `O=c1nc(-c2cccc(Sc3ncccn3)n2)sc2ccccc12`, the melting point is reported as 245 to 246 °C. For `CCCCOc1ccc(-c2ncc(Br)cn2)cn1`, the melting point was 134 to 138 °C. Work on `C=CS(=O)(=O)CCN1CCC(N2N=C(c3ccc(OC)c(OC)c3)[C@H]3CC=CC[C@H]3C2=O)CC1` yielded a melting point of 165 to 166 °C. With `O=C(O)[C@H](CCCCO)N1C(=O)c2ccccc2C1=O` the melting point was 162 to 163 °C. For `Cc1c(C)c2c(c(C)c1N)OC(C)(C)C2=O`, the melting point was 150 to 151 °C. For `O=C1N=C(N2CCOCC2)SC1=Cc1cc(-c2ccc(O)c(C34CC5CC(CC(C5)C3)C4)c2)c(O)cc1O`, the melting point was 306 to 310 °C. `CCN(CC)C(=O)N1SN(C(C)C)C(=O)c2ccccc21` showed a melting point of 103 to 104 °C. `CC1(C)CCC(=O)CC1S(=O)(=O)c1ccccc1` (stereo not drawn) showed a melting point of 84 to 86 °C. Compound `FC(F)(F)c1ccc2nc(-c3csc(Nc4ncccc4Cl)n3)[nH]c2c1` has a melting point of 207 to 208 °C. Work on `CC(=NOCCO)c1ccc2ccccc2n1` yielded a melting point of 89 °C. `CCc1c(C)oc(-c2ccc(S(C)(=O)=O)cc2)c(Oc2ccc(F)cc2F)c1=O` gave a melting point of 173 °C. Compound `CC(C)C(OCc1ccccc1)[C@H]1[C@H]([N+](=O)[O-])[C@@H](c2ccco2)N[C@@H]1C(=O)NCCC(=O)O` (stereo partly drawn) has a melting point of 70 to 72 °C. In the case of `O=C(O)C1=Cc2cc(Cl)c(OCC(F)(F)F)cc2OC1C(F)(F)F` (stereo not drawn), the melting point is reported as 174 to 176 °C. For `C=CC(=O)Oc1ccc(-c2cccc(F)c2F)cc1`, the melting point was 88.4 to 90 °C. `COc1c(OC)c(OC)c2c(=O)cc(-c3ccc(O)cc3)oc2c1OC` gave a melting point of 187 to 188 °C. In the case of `C[C@@H](n1cncn1)[C@](O)(Cn1cncn1)c1ccccc1F`, the melting point is reported as 105 to 106 °C. `CNc1nc(-c2cccc(-c3cncc4ccccc34)c2)c2cc(OC)c(OC)cc2n1` showed a melting point of 181 to 183 °C. In the case of `COc1ccc(Cc2nc3c(cnn3C(CCCc3ccccc3)C(C)O)c(=O)[nH]2)cc1` (stereo not drawn), the melting point is reported as 41 °C. In the case of `Cc1c(NC(=O)c2ccc(OC[C@@H]3CCCO3)cc2)ccc2cc(CN3CCC(C)(O)CC3)cnc12`, the melting point is reported as 169 to 174 °C. `Cn1c(C2CC2)nc2c(O[C@@H]3c4ccccc4C[C@H]3O)cc(C(=O)O)cc21` (relative stereo) showed a melting point of 132 to 134 °C. For `CC(=O)c1cc2c(=O)n(NS(C)(=O)=O)c(=O)[nH]c2cc1C(F)(F)F`, the melting point was 258 to 265 °C. Compound `CCOc1cc(OCCOCc2ccccc2)cc2c1C(=O)N(COC(=O)c1c(Cl)cccc1Cl)S2(=O)=O` has a melting point of 121 to 122 °C. In the case of `O=C1C(=O)c2ccc(-c3ccc(C(F)(F)F)cc3)cc2C2=C1SCC1(CCNCC1)O2`, the melting point is reported as 190 to 240 °C. Compound `Cn1c2cc(Cl)ccc2c2c(C(=O)N3CCCC3)nc(-c3ccncc3)nc21` has a melting point of 256 to 258 °C. For `c1ccc2c(c1)[nH]c1c2ccc2cc[nH]c21`, the melting point was 295 °C. Compound `Cc1c(NC(=O)c2c(C(=O)N3CCC3)cnn2C)ccn2nc(-c3ccccc3)nc12` has a melting point of 243 to 245 °C. With `COc1cc2c(cc1C(O)c1ccccc1)C=C2C(=O)O` (stereo not drawn) the melting point was 143 to 146 °C. Work on `Cc1ccccc1CC(=NC#N)NC(NC(=O)Cc1ccc(C#N)cc1)C(C)(C)C` (stereo not drawn) yielded a melting point of 199 to 201 °C. With `COC(=O)C1CC(=O)N(c2cc(C(F)(F)F)cc(C(F)(F)F)c2)C1` (stereo not drawn) the melting point was 68 to 70 °C. Compound `CCCCCS(=O)(=O)NC(=O)OCCCc1ccc(OCCOC)cc1Oc1ncc(C(F)(F)F)cc1Cl` has a melting point of 97.5 to 99 °C. Work on `CC(C)(C)N1C(O)c2cccc(Cl)c2S1(=O)=O` (stereo not drawn) yielded a melting point of 139 to 141 °C. `CCCCCN1C(=O)C(O)(c2cc3c(cc2O)OCO3)c2ccncc21` (stereo not drawn) showed a melting point of 193 to 195 °C. With `CC(=O)NC(C)CCC1CCN(c2nc3ccc(OCC4CC4)cc3o2)CC1` (stereo not drawn) the melting point was 131 to 132 °C. Work on `CCC1CC2=C(CO1)C(=O)c1ccccc1C2=O` (stereo not drawn) yielded a melting point of 98 to 101 °C. `CC(C)c1cccc2c1CC(C(=O)O)SCC2=O` (stereo not drawn) gave a melting point of 157 to 158 °C. With `CCCn1c(=O)c2[nH]c(C3CCCC3)nc2n(CCc2ccc(NC(=O)C3CCCC3)cc2)c1=O` the melting point was > 270 °C. `COc1ccc(OC)c2c1CCC(Nc1ccc(O)cc1)C2` (stereo not drawn) gave a melting point of 188 to 189 °C. `Cc1cc(-n2cncn2)cc2c1NC(=O)CC2` gave a melting point of 258 to 259 °C. `N=C(Cc1ccccc1)Nc1ncccc1OCc1ccccc1` gave a melting point of 114 to 116 °C. Work on `CCCN(CCC)CC1CCCCN1CCNC(=O)N1c2ccccc2C(=O)Nc2cccc(Cl)c21` (stereo not drawn) yielded a melting point of 71 to 78 °C. `COc1ccc(-n2cc(C(=O)O)cn2)cc1` gave a melting point of 235 to 237 °C. `Cc1c[nH]c2c1C(=O)CC(c1cccs1)C2` (stereo not drawn) showed a melting point of 195 to 196 °C. `O=C(Nc1c(Cl)cc(C(F)(c2cccs2)C(F)(F)F)cc1Cl)c1cccc(NC(=O)c2c(F)cc(F)cc2F)c1F` (stereo not drawn) gave a melting point of 190 to 193 °C. `FC(F)Oc1ccc2c(Cc3c(Cl)cncc3Cl)nnc(-n3cncn3)c2c1` gave a melting point of 220 to 224 °C. Work on `CCOC=Cc1ncnc2c1ncn2Cc1ccccc1` yielded a melting point of 114 to 115 °C. Compound `COC1(c2csc(Sc3ccc4c(c3)CCC(=O)N4C)c2)CCOCC1` has a melting point of 106 to 108 °C. With `CC(=O)Oc1c(C)ccc2ccccc12` the melting point was 81 to 83 °C. Compound `COc1ccc2c(c1OCc1ccccc1)CC(C(=O)O)N(C(=O)C(c1ccccc1)c1ccccc1)C2` (racemic) has a melting point of 157 to 159 °C. For `CCCc1c(COc2ccc3c(=O)cc(C(=O)O)oc3c2CCC)ccc(C(C)=O)c1O`, the melting point was 195 to 205 °C. With `CCN(CC)C(=O)n1ccc(S(=O)(=O)c2ccc(Br)c(C)c2)n1` the melting point was 75 to 77 °C. Compound `COC(=O)c1coc(-c2ncn3c2CN(C)C(=O)c2c(Cl)cccc2-3)n1` has a melting point of 266 to 268 °C. In the case of `CN1CCN(C(=O)Oc2ccc([N+](=O)[O-])cc2)CC1`, the melting point is reported as 134 to 135 °C. For `CC1(c2ccc([N+](=O)[O-])cc2)C(=O)Nc2cc(Cl)ccc2C1=O` (stereo not drawn), the melting point was 209 to 210 °C. In the case of `CCOC(=O)Cc1c(C(=O)c2ccc(Cl)cc2)[nH]c2cc(Cl)ccc12`, the melting point is reported as 186 to 188 °C. Work on `CN(Cc1cccs1)C(=O)C1(c2ccc(F)cc2)CCCC1` yielded a melting point of 72 to 75 °C. With `CCOC(=O)C1=C(C)Nc2ccnc(OC(C)C)c2C1c1cccc(C(F)(F)F)c1Cl` (stereo not drawn) the melting point was 173 to 175 °C. In the case of `Cn1c(=O)c2c(O)nccc2n(C)c1=O`, the melting point is reported as > 300 °C. `O=C(CCc1cc(Br)c(OC(=O)c2c3ccccc3nc3ccccc23)c(Br)c1)ON1C(=O)CCC1=O` showed a melting point of 175 to 176 °C. With `CC(=O)Nc1cccc2c1CCC(NC(C)c1ccccc1)C2` (stereo not drawn) the melting point was 158 °C. In the case of `CC(C)c1ccnc(C(=O)c2[nH]c3ccc(Cl)cc3c2CC(=O)O)c1`, the melting point is reported as 227 to 228 °C. Work on `CC(=O)OC1CSC(Oc2cc(-c3cncnc3)cnc2F)C(OC(C)=O)C1OC(C)=O` (stereo not drawn) yielded a melting point of 96 to 97 °C. In the case of `CC(=O)OC1(O)C(C(C)(C)C)=CC(C(=O)c2ccccc2O)=CC1C(C)(C)C` (stereo not drawn), the melting point is reported as 182 to 186 °C. `CCOc1ccccc1OC(c1ccccc1)C(O)CN` (stereo not drawn) showed a melting point of 98.5 to 99.9 °C. In the case of `CCCCCN1C(=O)C(c2ccc3c(c2)OCO3)c2cccnc21` (stereo not drawn), the melting point is reported as 75 to 77 °C. Work on `CC(=O)OC1CSC(Oc2cncc(-c3cnccc3C)c2)C(OC(C)=O)C1OC(C)=O` (stereo not drawn) yielded a melting point of 165 °C. `Cc1cc2c(c3c1NC(=O)CC3)OC(CN=[N+]=[N-])C2` (stereo not drawn) gave a melting point of 146 to 149 °C. In the case of `COc1ccc([N+](=O)[O-])c2c1OCC(C(=O)Nc1ccc(N3CCOCC3)cc1)C2` (stereo not drawn), the melting point is reported as 238 to 240 °C. `CC1(C)OC(=O)Nc2ccc(-c3ccccc3-c3ncsn3)cc21` showed a melting point of 214 to 216 °C. `CC(C)(C)OC(=O)N[C@@H](CC1CCCCC1)[C@H](O)c1ccccn1` gave a melting point of 84 to 85 °C. `CNCC1Cc2cc(C)cc(-c3cccc(OC)c3OC)c2O1` (stereo not drawn) showed a melting point of 85 to 89 °C.
